Source: US8679478B2, “Methods of lysosomal storage disease therapy” (Duke University, priority 2010, dated 2014)

Assays:
[1] = test system: GAA-KO mice; assay: Glycogen content in muscles, ERT plus clenbuterol or albuterol; format: in vivo, mouse; settings: for glycogen content for quadriceps: p<0.001; for Glycogen content: ERT plus clenbuterol v. ERT alone
Procedure: (§1) FIG. 8A-8C depicts increased GAA uptake and increased glycogen clearance in GAA-KO mice following clenbuterol treatment and ERT. […] GAA-KO mice were administered four weekly doses of rhGAA (20 mg/kg), and treated with clenbuterol (n=6) or untreated (n=5). […] Mean+/−standard deviation are shown. Statistically significant differences indicated (*=p<0.05; **=p<0.01).
GAA-KO mice were treated with weekly rhGAA (20 mg/kg): with medium clenbuterol, […] (n=6), with low clenbuterol, 1.3 mg/ml (n=6), with albuterol 30 mg/ml (n=4), or without drug treatment (n=3). Drugs were administered in the drinking water. Mean+/−s.d. shown. Statistically significant differences indicated (*=p<0.05; **=p<0.01).
(§2) For in vivo analysis of AAV vectors, stocks were administered intravenously (via the retroorbital sinus) in 3 month-old and 15 month-old GAA-KO mice, and to 3 month-old tolerant GAA-KO and DKO mice. Clenbuterol (30 μg/ml) was administered to groups of 3 month-old vector-injected and mock-injected male GAA-KO mice in drinking water for 28 days. At the indicated time points post-injection, tissue samples were obtained and processed as described below. All animal procedures were done in accordance with Duke University Institutional Animal Care and Use Committee-approved guidelines. GAA activity and glycogen content were analyzed essentially as described (Sun et al., Mol. Ther., 2005, 11:889-898; Sun et al., Mol. Ther., 2005, 11: 57-65). Rotarod testing was performed essentially as described (Sun, B. D. et al. 2005). Western blotting of hGAA was performed essentially as described (Amalfitano et al., Proc. Natl. Acad. Sci. USA, 1999, 96: 8861-8866) using the hGAA monoclonal antibody (courtesy of Genzyme Corp., Framingham, Mass.) and the CI-MPR antibody (catalog number GTX28093; Gene Tex, Irvine, Calif.).
(§3) The efficacy from gene therapy was increased by β2 agonist stimulation from clenbuterol treatment, and this benefit might be expected to affect ERT in Pompe disease, as well. Therefore, groups of 3 month-old GAA-KO mice were treated with four weekly doses of rhGAA (20 mg/kg), with or without concurrent clenbuterol treatment.

[2] = test system: GAA-KO mice; assay: GAA activity in tissues, ERT plus clenbuterol; format: in vivo, mouse; settings: ERT plus clenbuterol v. ERT alone
Procedure: as §1, §2, §3

CC(C)(C)NCC(O)c1cc(Cl)c(N)c(Cl)c1 (stereo not drawn) [clenbuterol]
significantly reduced: glycogen content for quadriceps ([1]; ERT plus clenbuterol 1.3 μg/ml (Low) in drinking water) | glycogen content for quadriceps ([1]; ERT plus clenbuterol 6 μg/ml (Medium) in drinking water) | Glycogen content ([1]; diaphragm, p=0.0002) | Glycogen content ([1]; quadriceps, p=0.00002) | Glycogen content ([1]; tibialis anterior, p=0.002)
significantly increased: GAA activity ([2]; gastrocnemius, p=0.04) | GAA activity ([2]; liver, p<0.0001) | GAA activity ([2]; spleen, p=0.002)
absence of increased glycogen clearance: glycogen clearance ([1]; gastrocnemius, ERT plus clenbuterol)
